pIC50: −log10 of the molar value.
Assays:
Type in all cases: biochemical
B-Raf V600E = biological target: T1, B-Raf V600E (Homo sapiens, UniProt P15056, V600E); experiment: AlphaScreen kinase assay, B-Raf V600E; details: read-out: IC50, activity toward kinase B-Raf V600E
T1 construct: P4254. pFastBacBD-CDC37 BRAF D437-K722-X, V600E; His6 with pFastBac HT leader (TEV site) (N); made in house; host or cells: Sf9 (baculovirus; chaperone CDC37 co-expressed)

Kdr = biological target: T2, Kdr (Homo sapiens, UniProt P35968); experiment: Z'-Lyte FRET kinase assay (Invitrogen), Kdr; details: read-out: IC50, activity toward kinase Kdr
T2 construct: purchased Invitrogen (assay run by Invitrogen)

B-Raf = biological target: T3, B-Raf (Homo sapiens, UniProt P15056); experiment: AlphaScreen kinase assay, B-Raf; details: read-out: IC50, activity toward kinase B-Raf
T3 construct: purchased Upstate Biotechnology

c-Raf-1 = biological target: T4, c-Raf-1 (Homo sapiens, UniProt P04049); experiment: AlphaScreen kinase assay, c-Raf-1; details: read-out: IC50, activity toward kinase c-Raf-1
T4 construct: purchased Upstate Biotechnology

FGFR1 = biological target: T5, FGFR1 (Homo sapiens, UniProt P11362, C488A/C584S); experiment: AlphaScreen kinase assay, FGFR1; details: read-out: IC50, activity toward kinase FGFR
T5 construct: P1351.pET N6 BI-PTP FGFR A458-E765-X C488A, C584S; made in house; host or cells: E. coli (PTP1B co-expressed)

Flt1 = biological target: T6, Flt1 (Homo sapiens, UniProt P17948); experiment: AlphaScreen kinase assay, Flt1; details: read-out: IC50, activity toward kinase Flt1
T6 construct: P1826.pETN6 BI-PTP FLT1 M799-D1165-X WT; His6 (N); made in house; host or cells: E. coli (PTP1B co-expressed)
T6 sequence (P17948 with tags, fused parts or gaps): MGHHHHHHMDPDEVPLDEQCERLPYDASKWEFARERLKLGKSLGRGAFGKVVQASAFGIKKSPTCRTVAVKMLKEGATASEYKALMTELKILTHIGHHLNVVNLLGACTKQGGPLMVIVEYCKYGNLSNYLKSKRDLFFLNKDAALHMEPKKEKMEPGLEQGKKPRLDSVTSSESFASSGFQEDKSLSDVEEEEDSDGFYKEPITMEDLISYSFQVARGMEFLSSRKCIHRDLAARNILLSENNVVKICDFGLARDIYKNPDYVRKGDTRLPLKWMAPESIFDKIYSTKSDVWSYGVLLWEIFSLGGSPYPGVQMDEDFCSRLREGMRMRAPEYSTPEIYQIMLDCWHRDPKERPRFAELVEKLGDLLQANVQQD

Fms = biological target: T7, Fms (Homo sapiens, UniProt P07333); experiment: AlphaScreen kinase assay, Fms; details: read-out: IC50, activity toward kinase Fms
T7 construct: purchased Upstate Biotechnology

Kit = biological target: T8, Kit (Homo sapiens, UniProt P10721); experiment: AlphaScreen kinase assay, Kit; details: read-out: IC50, activity toward kinase Kit
T8 construct: P1332.N6 BI PTP KIT M552-K948-X COD; His6 (N); made in house; host or cells: E. coli (PTP1B co-expressed)

Ret = biological target: T9, Ret (Homo sapiens, UniProt P07949); experiment: AlphaScreen kinase assay, Ret; details: read-out: IC50, activity toward kinase Ret
T9 construct: P1378.pET-SF BI-PTP RET H661-R1012 HIS; made in house
T9 sequence (P07949 with tags, fused parts or gaps): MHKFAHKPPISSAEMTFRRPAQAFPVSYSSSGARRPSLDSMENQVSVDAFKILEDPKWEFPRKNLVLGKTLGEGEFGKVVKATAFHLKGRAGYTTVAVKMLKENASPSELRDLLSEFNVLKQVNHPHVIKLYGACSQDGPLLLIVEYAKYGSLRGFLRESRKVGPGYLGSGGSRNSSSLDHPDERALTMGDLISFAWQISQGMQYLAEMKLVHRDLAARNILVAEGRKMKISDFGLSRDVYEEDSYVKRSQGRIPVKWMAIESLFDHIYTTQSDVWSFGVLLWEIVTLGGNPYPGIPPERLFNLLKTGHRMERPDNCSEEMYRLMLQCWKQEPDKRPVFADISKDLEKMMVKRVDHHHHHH

Measured: pIC50

T2 sequence (P35968 20-1356): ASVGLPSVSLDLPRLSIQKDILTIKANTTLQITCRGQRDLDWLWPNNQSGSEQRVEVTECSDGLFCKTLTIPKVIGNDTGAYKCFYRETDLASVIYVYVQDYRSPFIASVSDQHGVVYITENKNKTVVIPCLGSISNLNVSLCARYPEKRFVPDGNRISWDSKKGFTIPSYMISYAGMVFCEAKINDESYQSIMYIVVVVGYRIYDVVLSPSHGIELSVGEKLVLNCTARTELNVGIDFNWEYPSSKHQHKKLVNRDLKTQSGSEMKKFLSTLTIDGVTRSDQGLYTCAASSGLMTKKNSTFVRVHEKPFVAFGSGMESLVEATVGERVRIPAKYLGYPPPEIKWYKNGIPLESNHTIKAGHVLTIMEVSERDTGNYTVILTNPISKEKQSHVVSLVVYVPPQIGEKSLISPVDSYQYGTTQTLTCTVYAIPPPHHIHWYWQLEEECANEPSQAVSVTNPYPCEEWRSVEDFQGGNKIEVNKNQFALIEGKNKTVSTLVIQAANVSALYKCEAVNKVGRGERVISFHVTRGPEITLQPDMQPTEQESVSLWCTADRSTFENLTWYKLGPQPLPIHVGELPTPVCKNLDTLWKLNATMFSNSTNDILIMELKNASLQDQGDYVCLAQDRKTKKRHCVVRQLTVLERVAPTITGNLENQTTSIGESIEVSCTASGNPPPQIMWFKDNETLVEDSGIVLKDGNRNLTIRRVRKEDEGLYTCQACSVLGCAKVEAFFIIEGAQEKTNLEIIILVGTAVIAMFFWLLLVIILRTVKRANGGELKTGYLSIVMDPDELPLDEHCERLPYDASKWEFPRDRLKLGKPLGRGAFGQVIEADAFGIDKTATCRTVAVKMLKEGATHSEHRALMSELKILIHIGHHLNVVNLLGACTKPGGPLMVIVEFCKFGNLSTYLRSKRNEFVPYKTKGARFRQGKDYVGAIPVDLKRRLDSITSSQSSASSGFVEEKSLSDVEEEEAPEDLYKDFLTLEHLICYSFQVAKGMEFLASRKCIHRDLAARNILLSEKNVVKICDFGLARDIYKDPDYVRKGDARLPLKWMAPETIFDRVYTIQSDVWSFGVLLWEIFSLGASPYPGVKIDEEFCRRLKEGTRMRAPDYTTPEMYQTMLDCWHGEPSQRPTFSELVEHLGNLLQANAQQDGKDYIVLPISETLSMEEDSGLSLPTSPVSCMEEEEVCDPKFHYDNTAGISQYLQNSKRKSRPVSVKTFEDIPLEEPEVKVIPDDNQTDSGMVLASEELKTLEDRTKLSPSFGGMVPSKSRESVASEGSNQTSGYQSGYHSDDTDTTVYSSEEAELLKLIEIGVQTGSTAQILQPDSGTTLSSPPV
T3 sequence (P15056 whole entry): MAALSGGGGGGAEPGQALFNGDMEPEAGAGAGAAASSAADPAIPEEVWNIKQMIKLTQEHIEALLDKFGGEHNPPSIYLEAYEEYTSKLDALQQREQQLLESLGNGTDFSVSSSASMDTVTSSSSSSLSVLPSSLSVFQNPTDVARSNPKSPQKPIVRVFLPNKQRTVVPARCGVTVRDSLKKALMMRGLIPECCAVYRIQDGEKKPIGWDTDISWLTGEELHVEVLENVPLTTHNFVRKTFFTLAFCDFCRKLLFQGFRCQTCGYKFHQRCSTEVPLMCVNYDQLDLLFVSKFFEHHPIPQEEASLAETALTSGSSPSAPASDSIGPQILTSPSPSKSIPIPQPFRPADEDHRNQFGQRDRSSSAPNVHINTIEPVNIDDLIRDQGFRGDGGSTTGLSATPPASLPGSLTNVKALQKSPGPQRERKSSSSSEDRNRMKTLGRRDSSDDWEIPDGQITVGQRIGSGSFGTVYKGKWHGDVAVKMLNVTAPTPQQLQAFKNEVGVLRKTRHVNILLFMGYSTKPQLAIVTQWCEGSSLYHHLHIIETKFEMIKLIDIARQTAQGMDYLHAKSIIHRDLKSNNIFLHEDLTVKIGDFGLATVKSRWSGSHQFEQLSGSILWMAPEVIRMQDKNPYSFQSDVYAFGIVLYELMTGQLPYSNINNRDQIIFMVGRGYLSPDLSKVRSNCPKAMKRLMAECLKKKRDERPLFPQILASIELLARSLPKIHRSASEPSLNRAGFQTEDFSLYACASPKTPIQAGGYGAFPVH
T8 sequence (P10721 with tags, fused parts or gaps): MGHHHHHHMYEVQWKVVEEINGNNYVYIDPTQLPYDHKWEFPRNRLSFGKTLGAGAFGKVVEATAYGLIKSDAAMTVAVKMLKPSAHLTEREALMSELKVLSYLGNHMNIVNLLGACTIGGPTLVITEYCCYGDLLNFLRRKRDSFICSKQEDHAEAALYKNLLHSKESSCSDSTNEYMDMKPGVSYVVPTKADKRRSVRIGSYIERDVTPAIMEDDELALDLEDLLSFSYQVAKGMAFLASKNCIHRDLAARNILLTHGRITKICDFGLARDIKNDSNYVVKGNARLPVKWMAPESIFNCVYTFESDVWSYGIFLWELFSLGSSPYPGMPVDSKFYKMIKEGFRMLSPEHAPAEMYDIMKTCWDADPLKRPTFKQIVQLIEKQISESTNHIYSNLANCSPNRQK
T4 sequence (P04049 whole entry): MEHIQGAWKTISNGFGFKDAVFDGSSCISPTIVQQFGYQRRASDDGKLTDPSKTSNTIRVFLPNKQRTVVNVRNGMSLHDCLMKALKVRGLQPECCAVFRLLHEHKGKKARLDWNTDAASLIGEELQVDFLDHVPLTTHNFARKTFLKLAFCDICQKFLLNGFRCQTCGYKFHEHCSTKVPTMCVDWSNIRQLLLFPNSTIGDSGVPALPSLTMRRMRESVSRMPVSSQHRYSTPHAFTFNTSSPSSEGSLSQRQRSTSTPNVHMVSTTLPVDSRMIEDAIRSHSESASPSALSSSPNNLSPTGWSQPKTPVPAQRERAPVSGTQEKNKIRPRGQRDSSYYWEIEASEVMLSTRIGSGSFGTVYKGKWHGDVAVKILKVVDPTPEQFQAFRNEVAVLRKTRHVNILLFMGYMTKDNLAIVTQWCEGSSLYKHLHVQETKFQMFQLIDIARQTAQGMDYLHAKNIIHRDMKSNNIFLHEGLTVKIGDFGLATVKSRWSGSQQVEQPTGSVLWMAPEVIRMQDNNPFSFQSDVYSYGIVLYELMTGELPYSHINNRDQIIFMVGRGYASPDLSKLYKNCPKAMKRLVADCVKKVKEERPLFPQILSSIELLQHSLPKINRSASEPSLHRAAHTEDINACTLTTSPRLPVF
T1 sequence (P15056 with tags, fused parts or gaps V600E): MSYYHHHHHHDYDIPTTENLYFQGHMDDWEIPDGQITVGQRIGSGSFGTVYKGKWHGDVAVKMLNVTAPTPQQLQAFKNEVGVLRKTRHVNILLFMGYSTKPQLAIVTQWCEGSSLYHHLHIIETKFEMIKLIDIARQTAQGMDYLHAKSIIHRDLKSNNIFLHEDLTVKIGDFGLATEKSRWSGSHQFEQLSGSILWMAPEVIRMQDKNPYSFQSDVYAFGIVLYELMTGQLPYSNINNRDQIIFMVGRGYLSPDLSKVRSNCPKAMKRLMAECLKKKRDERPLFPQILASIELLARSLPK
T7 sequence (P07333 20-972): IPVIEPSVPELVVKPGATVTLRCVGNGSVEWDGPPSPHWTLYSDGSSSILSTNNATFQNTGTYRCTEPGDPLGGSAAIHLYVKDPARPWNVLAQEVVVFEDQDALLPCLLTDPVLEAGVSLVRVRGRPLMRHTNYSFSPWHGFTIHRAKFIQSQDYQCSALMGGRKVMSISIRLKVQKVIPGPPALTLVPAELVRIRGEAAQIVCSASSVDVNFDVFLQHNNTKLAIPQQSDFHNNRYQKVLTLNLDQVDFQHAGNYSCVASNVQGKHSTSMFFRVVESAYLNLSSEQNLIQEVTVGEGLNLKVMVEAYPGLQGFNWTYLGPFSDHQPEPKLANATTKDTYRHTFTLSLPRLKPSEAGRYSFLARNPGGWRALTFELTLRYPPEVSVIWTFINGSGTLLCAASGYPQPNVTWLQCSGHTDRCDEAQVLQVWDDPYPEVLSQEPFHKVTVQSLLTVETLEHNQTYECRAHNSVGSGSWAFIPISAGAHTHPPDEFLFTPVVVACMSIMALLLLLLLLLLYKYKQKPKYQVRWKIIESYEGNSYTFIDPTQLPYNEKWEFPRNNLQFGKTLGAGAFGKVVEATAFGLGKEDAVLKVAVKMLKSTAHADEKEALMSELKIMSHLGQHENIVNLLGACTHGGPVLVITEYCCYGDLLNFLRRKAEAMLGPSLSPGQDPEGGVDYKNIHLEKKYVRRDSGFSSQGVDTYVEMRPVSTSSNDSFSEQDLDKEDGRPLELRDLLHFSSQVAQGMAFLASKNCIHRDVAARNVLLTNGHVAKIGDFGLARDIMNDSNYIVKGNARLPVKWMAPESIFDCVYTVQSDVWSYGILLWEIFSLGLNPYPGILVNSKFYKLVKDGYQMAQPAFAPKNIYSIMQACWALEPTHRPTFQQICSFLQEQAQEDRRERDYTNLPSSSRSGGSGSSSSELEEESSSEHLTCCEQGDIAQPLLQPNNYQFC
T5 sequence (P11362 458-765 C488A/C584S): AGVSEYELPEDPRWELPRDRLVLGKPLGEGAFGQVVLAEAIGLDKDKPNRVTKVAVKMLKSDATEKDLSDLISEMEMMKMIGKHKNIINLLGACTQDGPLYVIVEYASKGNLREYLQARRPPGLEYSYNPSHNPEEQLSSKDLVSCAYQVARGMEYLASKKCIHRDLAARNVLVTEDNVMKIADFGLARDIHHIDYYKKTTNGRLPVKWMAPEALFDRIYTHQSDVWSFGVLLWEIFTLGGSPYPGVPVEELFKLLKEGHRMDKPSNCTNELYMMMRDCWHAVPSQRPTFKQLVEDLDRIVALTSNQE

O=C(c1cc([N+](=O)[O-])ccc1F)c1c[nH]c2ncccc12 [Compound P-0243]
≥ 5.00: B-Raf V600E | Kdr

Fc1ccc(NCc2c[nH]c3ncccc23)cc1 [Compound P-0144]
≥ 5.00: Kdr

COc1cnc2[nH]cc(C(=O)c3c(F)ccc(NS(=O)(=O)c4ccc(C(F)(F)F)cc4)c3F)c2c1 [Compound P-1542, N-[2,4-Difluoro-3-(5-methoxy-1H-pyrrolo[2,3-b]pyridine-3-carbonyl)-phenyl]-4-trifluoromethyl-benzenesulfonamide]
not listed: Kdr | Ret
≥ 5.00: all other assays above

O=C(c1c(F)ccc(NS(=O)(=O)c2ccc(C(F)(F)F)cc2)c1F)c1c[nH]c2ncc(Cl)cc12 [Compound P-1541, N-[3-(5-Chloro-1H-pyrrolo[2,3-b]pyridine-3-carbonyl)-2,4-difluoro-phenyl]-4-trifluoromethyl-benzenesulfonamide]
not listed: Kdr | FGFR1 | Ret
≥ 5.00: all other assays above

CC(C)Cc1nc(-c2ccnc3[nH]ccc23)no1 [Compound P-0288]
≥ 5.00: Kdr

Oc1ccccc1-c1c[nH]c2ncccc12 [Compound P-0182]
≥ 5.00: Kdr

COc1cccc(C(=O)c2c[nH]c3ncccc23)c1 [Compound P-0168]
≥ 5.00: FGFR1 | Kdr | Kit

c1cc2cc(Nc3ccc(N4CCOCC4)cc3)cnc2[nH]1 [Compound P-0981]
≥ 5.00: B-Raf V600E | Kdr

O=C(c1cccc(Cl)c1F)c1c[nH]c2ncc(Br)cc12 [Compound P-0299, (5-Bromo-1H-pyrrolo[2,3-b]pyridin-3-yl)-(3-chloro-2-fluoro-phenyl)-methanone]
≥ 5.00: Kdr

COc1cnc2[nH]cc(C(=O)c3c(F)ccc(NS(=O)(=O)c4cccc(F)c4)c3F)c2c1 [Compound P-1581, N-[2,4-Difluoro-3-(5-methoxy-1H-pyrrolo[2,3-b]pyridine-3-carbonyl)-phenyl]-3-fluoro-benzenesulfonamide]
not listed: Kdr | Ret
≥ 5.00: all other assays above

O=C(c1c(F)ccc(NS(=O)(=O)c2cccc(F)c2)c1F)c1c[nH]c2ncc(Cl)cc12 [Compound P-1583, N-[3-(5-Chloro-1H-pyrrolo[2,3-b]pyridine-3-carbonyl)-2,4-difluoro-phenyl]-3-fluoro-benzenesulfonamide]
not listed: Kdr | Ret
≥ 5.00: all other assays above

O=C(c1c(F)ccc(NS(=O)(=O)c2ccccc2)c1F)c1c[nH]c2ncc(Br)cc12 [Compound P-0798, N-[3-(5-Bromo-1H-pyrrolo[2,3-b]pyridine-3-carbonyl)-2,4-difluoro-phenyl]-benzenesulfonamide]
not listed: Kdr | Flt1 | Ret
≥ 5.00: all other assays above

CCCS(=O)(=O)Nc1ccc(F)c(C(=O)c2c[nH]c3ncc(N4CCN(C)CC4)cc23)c1F [Compound P-1246, propane-1-sulfonic acid {2,4-difluoro-3-[5-(4-methyl-piperazin-1-yl)-1H-pyrrolo[2,3-b]pyridine-3-carbonyl]-phenyl}-amide]
not listed: Kdr | Ret
≥ 5.00: all other assays above

COc1ccc(C(O)c2c[nH]c3ncccc23)cc1 (centres unmarked) [Compound P-0268]
≥ 5.00: Kdr

Clc1cccc(-c2ccnc3[nH]ccc23)c1 [Compound P-0427]
≥ 5.00: Kdr | Kit

COc1cccc(Cc2c[nH]c3nccc(Br)c23)n1 [Compound P-0339]
≥ 5.00: FGFR1 | Kdr | Ret

COC(c1ccc(NCc2ccc(Cl)cc2)nc1)c1c[nH]c2ncc(-c3cccc(S(C)(=O)=O)c3)cc12 (centres unmarked) [Compound P-0998]
≥ 5.00: B-Raf | B-Raf V600E | c-Raf-1 | Ret

O=C(c1c(Cl)ccc(OCC(F)(F)F)c1F)c1c[nH]c2ncc(-c3cccnc3)cc12 [Compound P-1395, [6-Chloro-2-fluoro-3-(2,2,2-trifluoro-ethoxy)-phenyl]-(5-pyridin-3-yl-1H-pyrrolo[2,3-b]pyridin-3-yl)-methanone]
not listed: Kdr | Ret
≥ 5.00: all other assays above

COc1cc(Cc2c[nH]c3ncc(-c4ccsc4)cc23)cc(OC)c1 [Compound P-0613]
not listed: Kdr | Flt1 | Ret
≥ 5.00: all other assays above

Brc1ccnc2[nH]ccc12 [Compound P-0458]
≥ 5.00: Kdr

COc1ccc(Cc2c[nH]c3nccc(-c4ccsc4)c23)cn1 [Compound P-0289]
≥ 5.00: FGFR1 | Kdr | Ret

CCc1cnc2[nH]cc(C(=O)c3cccc(OC)c3)c2c1 [Compound P-0267]
≥ 5.00: FGFR1 | Kdr

COc1cc(OC)cc(C(=O)c2c[nH]c3ncccc23)c1 [Compound P-0473]
≥ 5.00: FGFR1 | Kdr | Kit

Cc1cc(C(=O)c2c[nH]c3nccc(-c4cccc(NS(C)(=O)=O)c4)c23)n(C)n1 [Compound P-0234]
≥ 5.00: Kdr

CC(C)CNc1ccc(Cc2c[nH]c3ncccc23)cn1 [Compound P-0192]
≥ 5.00: B-Raf | B-Raf V600E | FGFR1 | Kdr

CS(=O)(=O)Nc1ccc(Cl)c(C(=O)c2c[nH]c3ncc(-c4cccc(S(C)(=O)=O)c4)cc23)c1F [Compound P-0841, N-{4-Chloro-2-fluoro-3-[5-(3-methanesulfonyl-phenyl)-1H-pyrrolo[2,3-b]pyridine-3-carbonyl]-phenyl}-methanesulfonamide]
≥ 5.00: B-Raf | B-Raf V600E | c-Raf-1 | FGFR1 | Ret

CC(=O)Nc1cccc(-c2cnc3[nH]cc(C(=O)c4cccc(C(F)(F)F)c4)c3c2)c1 [Compound P-1419, N-{3-[3-(3-Trifluoromethyl-benzoyl)-1H-pyrrolo[2,3-b]pyridin-5-yl]-phenyl}-acetamide]
not listed: Kdr | Flt1 | Ret
≥ 5.00: all other assays above

O=[N+]([O-])c1cccc(-c2ccnc3[nH]ccc23)c1 [Compound P-0197]
≥ 5.00: Kdr

Cc1ccccc1-c1c[nH]c2ncccc12 [Compound P-0482]
≥ 5.00: Kdr

COC(c1ccc(NCc2ccc(Cl)cc2)nc1)c1c[nH]c2ncc(-c3cccnc3)cc12 (centres unmarked) [Compound P-0939]
≥ 5.00: B-Raf | B-Raf V600E | c-Raf-1 | Ret

COc1cccc(C(O)c2c[nH]c3ncc(Br)cc23)c1F (centres unmarked) [Compound P-0242]
≥ 5.00: B-Raf V600E | FGFR1 | Kdr

CS(=O)(=O)Nc1ccc(Cl)c(C(=O)c2c[nH]c3ncc(Br)cc23)c1F [Compound P-0868, N-[3-(5-Bromo-1H-pyrrolo[2,3-b]pyridine-3-carbonyl)-4-chloro-2-fluoro-phenyl]-methanesulfonamide]
≥ 5.00: B-Raf | B-Raf V600E | c-Raf-1 | FGFR1 | Flt1
